Experimental data from US12410208B2, “(2-acetamidyl)thio-beta-D-galactopyranoside derivatives” (Idorsia Pharmaceuticals Ltd, priority 2020, dated 2025).
Like-named read-outs stand apart in the source and are kept apart here.

Legend:
human Gal-1 (hGal-1) = human Gal-1 (hGal-1) (Homo sapiens, UniProt P09382); assay: Competitive binding assay: biotinylated hGal-1 binding to microplate-adsorbed asialofetuin (ASF), spectrophotometric; details: hGal-1 binding to asialofetuin; Table 15; R and S epimers of selected Examples also listed; read-out: IC50 (Galectin-1 inhibition)
How it was run: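 Spectrophotometric competition readout with ABTS after streptavidin-peroxidase (80 ng/mL, 1 h, 4 °C) detection of bound biotinylated hGal-1.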

[1] = biological target: biotinylated human Gal-3 (hGal-3) (Homo sapiens, UniProt P17931); assay: Competitive binding assay: biotinylated hGal-3 binding to microplate-adsorbed asialofetuin (ASF), spectrophotometric
How it was run: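 Serially diluted compounds competed with asialofetuin on the plate for biotinylated human Gal-3 during a 3 h incubation at 4° C. Streptavidin-peroxidase with ABTS gave the spectrophotometric signal. IC50 values were averaged over repeat runs.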

[2] = Table 12, hGal-3, read-out: IC50 (Gal-3 inhibition)
[3] = Gal-3 inhibition, Table 5, read-out: IC50

biotinylated human Gal-3 (hGal-3), sequence (P17931 whole entry): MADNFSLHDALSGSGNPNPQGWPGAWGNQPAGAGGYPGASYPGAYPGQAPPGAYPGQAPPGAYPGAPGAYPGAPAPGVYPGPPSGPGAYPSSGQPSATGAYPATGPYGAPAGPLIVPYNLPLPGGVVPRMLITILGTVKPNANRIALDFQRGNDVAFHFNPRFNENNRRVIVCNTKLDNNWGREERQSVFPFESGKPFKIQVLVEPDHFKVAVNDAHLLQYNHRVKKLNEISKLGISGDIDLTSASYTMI
human Gal-1 (hGal-1), sequence (P09382 whole entry): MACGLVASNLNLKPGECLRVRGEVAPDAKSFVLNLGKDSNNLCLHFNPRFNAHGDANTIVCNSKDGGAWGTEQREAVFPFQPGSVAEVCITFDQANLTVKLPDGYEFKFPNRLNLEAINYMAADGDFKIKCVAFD

IC50 (human Gal-1 (hGal-1)) [nM] | IC50 [1, 2] [nM] | IC50 ([1]; Table 10, hGal-3, read-out: IC50 (Gal-3 inhibition)) [nM] | IC50 [1, 3] [nM] | Structure (SMILES)
120 | 40 |  |  | CCN(C)C(=O)C(S[C@@H]1O[C@H](CO)[C@H](O)[C@H](n2cc(-c3cc(F)c(F)c(F)c3)nn2)[C@H]1OC)C1(O)CCC(F)(F)CC1 (stereo partly drawn) [Example 2.44.203.I., 2-(4,4-Difluoro-1-hydroxycyclohexyl)-N-ethyl-2-(((2S,3R,4S,5R,6R)-5-hydroxy-6-(hydroxymethyl)-3-methoxy-4-(4-(3,4,5-trifluorophenyl)-1H-1,2,3-triazol-1-yl)tetrahydro-2H-pyran-2-yl)thio)-N-methylacetamide]
150 | 70 |  |  | CO[C@@H]1[C@@H](n2cc(-c3cc(F)c(F)c(F)c3)nn2)[C@@H](O)[C@@H](CO)O[C@H]1SC(C(=O)N(C)C1CCOCC1)C1(O)CCC(F)(F)CC1 (stereo partly drawn) [Example 2.44.213.I., 2-(4,4-Difluoro-1-hydroxycyclohexyl)-2-(((2S,3R,4S,5R,6R)-5-hydroxy-6-(hydroxymethyl)-3-methoxy-4-(4-(3,4,5-trifluorophenyl)-1H-1,2,3-triazol-1-yl)tetrahydro-2H-pyran-2-yl)thio)-N-methyl-N-(tetrahydro-2H-pyran-4-yl)acetamide]
20 |  | 30 |  | CCN(CC1CCOCC1)C(=O)C(S[C@@H]1O[C@H](CO)[C@H](O)[C@H](n2cc(-c3cc(F)c(F)c(F)c3)nn2)[C@H]1OC)C1(O)CCC(F)(F)CC1 (stereo partly shown) [Example 2.44.214.I.]
110 | 50 |  |  | CO[C@@H]1[C@@H](n2cc(-c3cc(F)c(F)c(F)c3)nn2)[C@@H](O)[C@@H](CO)O[C@H]1SC(C(=O)N(C)CCC1CC1)C1(O)CCC(F)(F)CC1 (stereo partly drawn) [Example 2.44.217.I., N-(2-Cyclopropylethyl)-2-(4,4-difluoro-1-hydroxycyclohexyl)-2-(((2S,3R,4S,5R,6R)-5-hydroxy-6-(hydroxymethyl)-3-methoxy-4-(4-(3,4,5-trifluorophenyl)-1H-1,2,3-triazol-1-yl)tetrahydro-2H-pyran-2-yl)thio)-N-methylacetamide]
30 |  |  | 20 | CN(CC1CC1)C(=O)C(S[C@@H]1O[C@H](CO)[C@H](O)[C@H](n2cc(-c3cc(F)c(F)c(F)c3)nn2)[C@H]1O)C1(O)CCC(F)(F)CC1 (stereo partly drawn) [Example 2.44.218., N-(Cyclopropylmethyl)-2-(4,4-difluoro-1-hydroxycyclohexyl)-2-(((2S,3R,4S,5R,6R)-3,5-dihydroxy-6-(hydroxymethyl)-4-(4-(3,4,5-trifluorophenyl)-1H-1,2,3-triazol-1-yl)tetrahydro-2H-pyran-2-yl)thio)-N-methylacetamide]
80 | 30 |  |  | CO[C@@H]1[C@@H](n2cc(-c3cc(F)c(F)c(F)c3)nn2)[C@@H](O)[C@@H](CO)O[C@H]1SC(C(=O)N(C)CC1CC1)C1(O)CCC(F)(F)CC1 (stereo partly drawn) [Example 2.44.218.I., N-(Cyclopropylmethyl)-2-(4,4-difluoro-1-hydroxycyclohexyl)-2-(((2S,3R,4S,5R,6R)-5-hydroxy-6-(hydroxymethyl)-3-methoxy-4-(4-(3,4,5-trifluorophenyl)-1H-1,2,3-triazol-1-yl)tetrahydro-2H-pyran-2-yl)thio)-N-methylacetamide]
1900 |  |  | 1150 | CN(CC1CC1)C(=O)[C@H](S[C@@H]1O[C@H](CO)[C@H](O)[C@H](n2cc(-c3cc(F)c(F)c(F)c3)nn2)[C@H]1O)C1(O)CCC(F)(F)CC1 [Example 2.44.218R., (R)-N-(Cyclopropylmethyl)-2-(4,4-difluoro-1-hydroxycyclohexyl)-2-(((2S,3R,4S,5R,6R)-3,5-dihydroxy-6-(hydroxymethyl)-4-(4-(3,4,5-trifluorophenyl)-1H-1,2,3-triazol-1-yl)tetrahydro-2H-pyran-2-yl)thio)-N-methylacetamide]
40 |  |  | 50 | CN(CC1CC1)C(=O)[C@@H](S[C@@H]1O[C@H](CO)[C@H](O)[C@H](n2cc(-c3cc(F)c(F)c(F)c3)nn2)[C@H]1O)C1(O)CCC(F)(F)CC1 [Example 2.44.218S., (S)-N-(Cyclopropylmethyl)-2-(4,4-difluoro-1-hydroxycyclohexyl)-2-(((2S,3R,4S,5R,6R)-3,5-dihydroxy-6-(hydroxymethyl)-4-(4-(3,4,5-trifluorophenyl)-1H-1,2,3-triazol-1-yl)tetrahydro-2H-pyran-2-yl)thio)-N-methylacetamide]
60 |  |  | 30 | CN(C(=O)C(S[C@@H]1O[C@H](CO)[C@H](O)[C@H](n2cc(-c3cc(F)c(F)c(F)c3)nn2)[C@H]1O)C1(O)CCC(F)(F)CC1)C1CC1 (stereo partly drawn) [Example 2.44.221., N-Cyclopropyl-2-(4,4-difluoro-1-hydroxycyclohexyl)-2-(((2S,3R,4S,5R,6R)-3,5-dihydroxy-6-(hydroxymethyl)-4-(4-(3,4,5-trifluorophenyl)-1H-1,2,3-triazol-1-yl)tetrahydro-2H-pyran-2-yl)thio)-N-methylacetamide]
220 | 50 |  |  | CO[C@@H]1[C@@H](n2cc(-c3cc(F)c(F)c(F)c3)nn2)[C@@H](O)[C@@H](CO)O[C@H]1SC(C(=O)N(C)CC(C)(C)F)C1(O)CCC(F)(F)CC1 (stereo partly drawn) [Example 2.44.222.1., 2-(4,4-Difluoro-1-hydroxycyclohexyl)-N-(2-fluoro-2-methylpropyl)-2-(((2S,3R,4S,5R,6R)-5-hydroxy-6-(hydroxymethyl)-3-methoxy-4-(4-(3,4,5-trifluorophenyl)-1H-1,2,3-triazol-1-yl)tetrahydro-2H-pyran-2-yl)thio)-N-methylacetamide]
8780 | 7900 |  |  | CO[C@@H]1[C@@H](n2cc(-c3cc(F)c(F)c(F)c3)nn2)[C@@H](O)[C@@H](CO)O[C@H]1S[C@@H](C(=O)N(C)CC(C)(C)F)C1(O)CCC(F)(F)CC1 [Example 2.44.222R.I., (R)-2-(4,4-Difluoro-1-hydroxycyclohexyl)-N-(2-fluoro-2-methylpropyl)-2-(((2S,3R,4S,5R,6R)-5-hydroxy-6-(hydroxymethyl)-3-methoxy-4-(4-(3,4,5-trifluorophenyl)-1H-1,2,3-triazol-1-yl)tetrahydro-2H-pyran-2-yl)thio)-N-methylacetamide]
70 | 10 |  |  | CO[C@@H]1[C@@H](n2cc(-c3cc(F)c(F)c(F)c3)nn2)[C@@H](O)[C@@H](CO)O[C@H]1S[C@H](C(=O)N(C)CC(C)(C)F)C1(O)CCC(F)(F)CC1 [Example 2.44.222S.I., (S)-2-(4,4-Difluoro-1-hydroxycyclohexyl)-N-(2-fluoro-2-methylpropyl)-2-(((2S,3R,4S,5R,6R)-5-hydroxy-6-(hydroxymethyl)-3-methoxy-4-(4-(3,4,5-trifluorophenyl)-1H-1,2,3-triazol-1-yl)tetrahydro-2H-pyran-2-yl)thio)-N-methylacetamide]
13400 |  |  | 3570 | CN(CC1(F)CCCC1)C(=O)C(S[C@@H]1O[C@H](CO)[C@H](O)[C@H](n2cc(-c3cc(F)c(F)c(F)c3)nn2)[C@H]1O)C1(O)CCC(F)(F)CC1 (stereo partly drawn) [Example 2.44.223R., 2-(4,4-Difluoro-1-hydroxycyclohexyl)-2-(((2S,3R,4S,5R,6R)-3,5-dihydroxy-6-(hydroxymethyl)-4-(4-(3,4,5-trifluorophenyl)-1H-1,2,3-triazol-1-yl)tetrahydro-2H-pyran-2-yl)thio)-N-((1-fluorocyclopentyl)methyl)-N-methylacetamide]
80 |  |  | 70 | CN(CC1(F)CCCC1)C(=O)[C@@H](S[C@@H]1O[C@H](CO)[C@H](O)[C@H](n2cc(-c3cc(F)c(F)c(F)c3)nn2)[C@H]1O)C1(O)CCC(F)(F)CC1 [Example 2.44.223S., (S)-2-(4,4-Difluoro-1-hydroxycyclohexyl)-2-(((2S,3R,4S,5R,6R)-3,5-dihydroxy-6-(hydroxymethyl)-4-(4-(3,4,5-trifluorophenyl)-1H-1,2,3-triazol-1-yl)tetrahydro-2H-pyran-2-yl)thio)-N-((1-fluorocyclopentyl)methyl)-N-methylacetamide]
150 |  |  | 70 | CN(CCC(C)(C)C)C(=O)C(S[C@@H]1O[C@H](CO)[C@H](O)[C@H](n2cc(-c3cc(F)c(F)c(F)c3)nn2)[C@H]1O)C1(O)CCC(F)(F)CC1 (stereo partly drawn) [Example 2.44.225., 2-(4,4-Difluoro-1-hydroxycyclohexyl)-2-(((2S,3R,4S,5R,6R)-3,5-dihydroxy-6-(hydroxymethyl)-4-(4-(3,4,5-trifluorophenyl)-1H-1,2,3-triazol-1-yl)tetrahydro-2H-pyran-2-yl)thio)-N-(3,3-dimethylbutyl)-N-methylacetamide]
120 | 100 |  |  | CO[C@@H]1[C@@H](n2cc(-c3cc(F)c(F)c(F)c3)nn2)[C@@H](O)[C@@H](CO)O[C@H]1SC(C(=O)N(C)CCC(C)(C)C)C1(O)CCC(F)(F)CC1 (stereo partly drawn) [Example 2.44.225.I., 2-(4,4-Difluoro-1-hydroxycyclohexyl)-N-(3,3-dimethylbutyl)-2-(((2S,3R,4S,5R,6R)-5-hydroxy-6-(hydroxymethyl)-3-methoxy-4-(4-(3,4,5-trifluorophenyl)-1H-1,2,3-triazol-1-yl)tetrahydro-2H-pyran-2-yl)thio)-N-methylacetamide]
110 |  |  | 90 | O=C(C(S[C@@H]1O[C@H](CO)[C@H](O)[C@H](n2cc(-c3cc(F)c(F)c(F)c3)nn2)[C@H]1O)C1(O)CCC(F)(F)CC1)N1CCC(F)(F)CC1 (stereo partly drawn) [Example 2.44.226., 2-(4,4-Difluoro-1-hydroxycyclohexyl)-1-(4,4-difluoropiperidin-1-yl)-2-(((2S,3R,4S,5R,6R)-3,5-dihydroxy-6-(hydroxymethyl)-4-(4-(3,4,5-trifluorophenyl)-1H-1,2,3-triazol-1-yl)tetrahydro-2H-pyran-2-yl)thio)ethan-1-one]
